Laboratory results as given in patent EP0519427A2, “N-substituted-3-iodopropiolamide, production and use thereof” (priority 1991, dated 1992).

Assays:
Format in all cases: cell-based
[1] = test system: Coriolus versicolor(L. ex Fr.) Quélet, FFPRI 1030; assay: Preserving activity for wood preservatives (weight loss of treated wood); settings: beech sapwood specimens, 110 ± 10 g/m² preservative applied (0.5% xylene solution per table note), eight weeks at 26 ± 2 °C; lower = higher preserving activity
Experimental: (§1) This test was conducted according to Specification No.1 of Japan Wood Preserving Association, enacted in 1979, amended in 1989 and titled "Test methods of preserving activity for wood preservatives used in the coating, spraying and dipping treatment".
(§2) • ① Tyromyces palustris (Ber. et Curt.) Murr., FFPRI 0507 --"Ouzuratake" • ② Coriolus versicolor(L. ex Fr.) Quélet, FFPRI 1030 --"Kawaratake"
(§3) These two fungi are classified as wood rot fungi.
(§4) Culture media comprised culture jars (cylindrical jars of bottom diameter 8-9 cm, opening diameter 6-7 cm and height 15-18 cm), in which quartz sand of 250 g (the size of which corresponds to 20-30 mesh) was put first, and then the solution of 70 ml containing 2.0 % malt extracts and 1.0 % peptone was introduced, over which chips of the beech or other broadleaf tree were spread at about 2 mm thickness, and then sterilized at 120 °C for 30 minutes in the wet heated sterilizer.
(§5) Fungi were cultured at 26 ± 2 °C with shaking using the culture solution of 2.0 % malt extracts and 1.0 % peptone. After sufficient breeding was obtained, the fungi solution of about 3 ml was spread all over the culture medium, and then the fungi were cultured at 26 ± 2 °C with the relative humidity of over 70 %. After 10-15 days when the fungi layer sufficiently covered the culture medium, the fungi were served for the tests.
(§6) Wood specimens were the sapwood of intact cedar and beech, the dimension of which was 5 mm thick, 20 mm wide and 40 mm long. The grain face was of 20 mm width and 40 mm length. The side faces were treated with cold-setting epoxy resin.
(§7) The antimicrobial operation was performed with specifying types of fungi for corresponding type of trees. The combinations were as follows: Cedar----Tyromyces palustris ("Ouzuratake") Beech----Coriolus versicolor ("Kawaratake")
(§8) The test specimens were of two types, treated and untreated specimens, respectively.
(§9) The treated specimens referred to the wood specimens coated by brushing, spraying or dipping with wood preservatives. The amount of applied preservatives was 110 ± 10 g/m².
(§10) The amount of applied preservatives for each test specimen was calculated by the following equation:
(§11) The amount of applied preservatives (g/m²)=(W₁-W₂)/A wherein W₁ : weight of the test specimen after absorption(g), W₂ : weight of the test specimen before absorption(g) and A: surface area of test specimen except both butt surfaces (m²)
(§12) 2-7-1 The test specimens prepared in the previous section were dried at 60 ± 2 °C with a recirculating dryer for 48 hours, and were allowed to stand in a desiccator for about 30 minutes, and then the weight (W₃) was measured to an accuracy of 0.01 g.
(§13) 2-7-2 Three of each treated and untreated specimens were assembled in the Teflon casing. After sterilizing, the two assemblies were put on their 40 × 5 mm face on the fungi layer in the separate jar. They were kept at 26 ± 2 °C under the relative humidity of over 70 % for eight weeks.
(§14) 2-7-3 After the eight weeks had elapsed, the test specimens were taken out, and mycelia and other attachments of them were removed neatly. After air-drying for 24 hours, the test specimens were dried at 60 ± 2 °C in a recirculating dryer for 48 hours, and were allowed to stand in a desiccator for about 30 minutes, and then the weight (W₄) was measured to an accuracy of 0.01 g.
(§15) The test results were presented by the ratio of average weight loss of test specimens due to antimicrobial operation. The standard deviation and coefficient of variation were also determined. The ratio of weight loss for each test specimen was calculated by the following equation, and its average was also determined: The ratio of weight loss(%) = (W₃ - W₄) / W₃ × 100 [formula] . Lower value of the ratio of weight loss corresponds to higher wood preserving activity. […]

[2] = test system: Tyromyces palustris (Ber. et Curt.) Murr., FFPRI 0507; assay: as above; settings: cedar sapwood specimens, 110 ± 10 g/m² preservative applied (0.5% xylene solution per table note), eight weeks at 26 ± 2 °C; lower = higher preserving activity
Experimental: as §1, §2, §3, §4, §5, §6, §7, §8, §9, §10, §11, §12, §13, §14, §15

[3] = test system: Aspergillus niger van Tieghem IFO 6341; assay: Fungicide activity for wood fungicide (rating of fungi growth on treated wood); settings: beech specimens dipped 3 min in fungicide solution, 4 weeks culture; rating 0 (no growth) to 3; mean of 6 specimens
Experimental: (§16) This test was conducted according to Specification No.2 of Japan Wood Preserving Association, enacted in 1979 and titled "Test methods of fungicide activity for wood fungicide".
(§17) • ① Aspergillus niger van Tieghem IFO 6341 = ATCC 6275 • ② Penicillium funiculosum Thom (formerly : Penicillium luteum Zukal) IFO 6345 = ATCC 9644 • ③ Rhizopus javanicus Takeda (formerly : Rhizopus nigricans Ehrenberg S.N. 32) IFO 6354 • ④ Aureobasidium pullulans (de Bary) Arnaud IFO 6353 = IAM (H. Iizuka, F-24) • ⑤ Gliocladium virens Miller, Gidden & Fosteb IFO 6355 = ATCC 9645 (formerly : Trichoderma viride, T.I.)
(§18) The fungi ① , ② , ③ and ⑤ are classified as fungi imperfecti, and the fungus ④ as blue stain fungus.
(§19) The Culture medium comprised the potato-sap agar culture medium (specified in the Japan Industrial Standard (JIS) Z 2911- 1960) of 50 ml, put in the conical flask of 100 ml, sterilized by steam at 1.4-1.6 kgf/cm² .G (137.2-156.8 KPa) for 30 minutes.
(§20) The fungi to be used were inoculated into the culture medium specified in the previous section and were cultured at 26 ± 2 °C under the relative humidity of 70-80 % for two weeks.
(§21) The potato sap of 50 ml, sterilized, cooled to room temperature and to which dioctyl sodium sulfosuccinate, a wetting agent, was added so as to become 0.005 %, was dropped to the fully breeding fungi layer, and was agitated with a platinum spatula in such a way that the spore was torn off. The resulting liquid filtered by sterilized gauze was the spore suspension.
(§22) 3-5-1 A Petri dish measured 90-100 mm in diameter and 20 mm in height.
(§23) 3-5-2 Agar liquid (which has no nutrients) of 2 % sterilized by steam was dropped onto the Petri dish sterilized by dry heat, and then was solidified.
(§24) 3-5-3 Three mm diameter sterilized glass bars or plastic nets made of polypropylene, etc. were placed to prevent the test specimens from touching with agar directly.
(§25) 3-6-1 The type of trees for wood specimens was beech. The cross section was of grain face, and the dimension was 20 mm wide 3 mm thick and 50 mm long.
(§26) 3-6-2 Wood specimens were supplied with nutrients in such a way that they were dipped into the potato-sap (the one in the section 3-2, but agar was not added) for 3 minutes.
(§27) 3-6-3 Nutrient-supplied wood specimens, after drying at 60 °C, were used for testing immediately. They were temporarily stored at 0 °C, but they were served to tests as soon as possible.
(§28) The test specimens were of two types, treated and untreated speciments. The treated specimens referred to the one treated with fungicide. The untreated specimens were of two types, the one really untreated and the other treated with solvent only.
(§29) 3-7-2-1 Nutrients-supplied wood specimens were dried at 60 ± 2 °C, and then their weights (W₀) were measured. Test specimens of 10-20 pieces were piled up in a one liter beaker in such a way that two specimens constant space apart from each other were alternately put on the other two specimens also constant space apart from each other. On the top of the two specimens, a weight was placed. Through the test specimens thus arranged, the fungicide solution was introduced. The level of the fungicide solution was one centimeter above the top specimens. The test specimens were dipped for three minutes after the fungicide solution introduction.
(§30) After finishing dipping, the test specimens were wiped softly, and then the weights (W₁) were measured immediately. As control experiment, the same procedure as the above was done using solvent without fungicide.
(§31) 3-7-2-2 The amounts of solution pick-up and fungicide pick-up were calculated with the following equations: The amount of solution absorption: RL = W₁ - W₀ [formula] The amount of fungicide absorption: Rc = RL × fungicide concentration [formula] 3-7-2-3 Wood specimens treated were placed without contacting each other, then were air-dried for two days, and then served as the treated test specimens. […]

[4] = test system: Aureobasidium pullulans (de Bary) Arnaud IFO 6353; assay: as above; settings: beech specimens dipped 3 min in fungicide solution, 4 weeks culture; rating 0 (no growth) to 3; mean of 6 specimens
Experimental: as §16, §17, §18, §19, §20, §21, §22, §23, §24, §25, §26, §27, §28, §29, §30, §31

[5] = test system: Gliocladium virens Miller, Gidden & Fosteb IFO 6355; assay: as above; settings: beech specimens dipped 3 min in fungicide solution, 4 weeks culture; rating 0 (no growth) to 3; mean of 6 specimens
Experimental: as §16, §17, §18, §19, §20, §21, §22, §23, §24, §25, §26, §27, §28, §29, §30, §31

[6] = test system: Penicillium funiculosum Thom IFO 6345; assay: as above; settings: beech specimens dipped 3 min in fungicide solution, 4 weeks culture; rating 0 (no growth) to 3; mean of 6 specimens
Experimental: as §16, §17, §18, §19, §20, §21, §22, §23, §24, §25, §26, §27, §28, §29, §30, §31

[7] = test system: Rhizopus javanicus Takeda IFO 6354; assay: as above; settings: beech specimens dipped 3 min in fungicide solution, 4 weeks culture; rating 0 (no growth) to 3; mean of 6 specimens
Experimental: as §16, §17, §18, §19, §20, §21, §22, §23, §24, §25, §26, §27, §28, §29, §30, §31

[8] = test system: Aspergillus Niger (IFO 6341), Penicillium funiculosum (IFO 6345), Rhizopus javanicus (IFO 6354), Aureobasidium pullulans (IFO 6353), Gliocladium virens (IFO …); assay: Fungicide activity for wood fungicide, sum of average ratings and damage value over the five fungi
Experimental: as §16, §17, §18, §19, §20, §21, §22, §23, §24, §25, §26, §27, §28, §29, §30, §31

`CCCCNC(=O)OCC#CI` [R, I-C≡CCH₂O-CO-NH(CH₂)₃CH₃, reference compound] was tested, and the “Ratio of weight loss (%), C. versicolor” value [1] was 6.4%, the “Ratio of weight loss (%), T. palustris” value [2] was 1.3% and the “Average rating value, A₁ : Aspergillus Niger (IFO 6341)” value [3] was 0.0. For the same compound, the “Average rating value, A₄ : Aureobasidium pullulans (IFO 6353)” value [4] was 0.0, the “Average rating value, A₅ : Gliocladium virens (IFO 6355)” value [5] was 0.0 and the “Average rating value, A₂ : Penicillium funiculosum (IFO 6345)” value [6] was 0.0. For the same compound, the “Average rating value, A₃ : Rhizopus javanicus (IFO 6354)” value [7] was 2.0, the damage value ([8]; D = S₁ / S₀ × 100, untreated 100.0, lower = higher fungicide activity) was 13.3 and the “Sum (of average rating values A₁ to A₅)” value ([8]; S = A₁ + A₂ + A₃ + A₄ + A₅, untreated 15.0) was 2.0.
